# Results as given in patent publication US20150352108A1, “AMINO-PYRIMIDINE COMPOUNDS AS INHIBITORS OF TBK1 AND/OR IKK EPSILON” (Alzheimer's Institute of America, priority 2009, published 2015).
# pIC50: −log10 of the molar value. Where two headings read alike, the source gives them in different places.
# Tests used:
# [1] = test system: IKKε-mediated phosphorylation of IRF3; test: In-situ phosphorylation of IRF3 (pIRF3 Ser396 ELISA) in HEK293T cells cotransfected with IRF3 and IKKε; format: cell-based; settings: Homo sapiens, HEK-293T
# Experimental: HEK293T cells were cotransfected in a 10-cm dish with IRF3 and IKKε expression plasmids using Lipofectamine 2000 (Invitrogen, Carlsbad, Calif.). The following day, cells were replated at 20,000 per well in 96-well plates and treated with test compounds (compounds according to Formula I) for 20 hours. Cell lysates were prepared and analyzed using an ELISA for phospho-Ser396 (anti-IRF3 capture antibody, Santa Cruz Biotechnology, Inc., Santa Cruz, Calif.; anti-p-Ser396 IRF3 detection antibody, Cell Signaling, Danvers, Mass.). pIRF3 levels in compound treated cells were normalized to DMSO treated cells (no compound). Cell viability was assayed in a parallel set of plates to monitor cytotoxic effects of the test compounds (CellTiter-Glo, Promega, Inc., Madison, Wis.). TBK1 activity was tested by Western blotting using a phospho-specific IRF7 antibody. Similar to above, HEK293T cells were transfected with IRF7 and TBK1 expression plasmids. Cells were seeded in 12-well plates at 150,000 per well and treated overnight with test compounds. Protein lysates were prepared and processed for Western blotting followed by detection using a phosphor-Ser477/Ser479 IRF7 antibody (BD Biosciences, San Jose, Calif.)
# TBK1 = target: T1, TBK1 (Homo sapiens, UniProt Q9UHD2); test: In-vitro TBK1 kinase assay ([γ33]ATP filter-plate); format: biochemical
# T1 construct: His-tag; made in house; host or cells: Sf9 insect cells
# T1 sequence (Q9UHD2 1-729): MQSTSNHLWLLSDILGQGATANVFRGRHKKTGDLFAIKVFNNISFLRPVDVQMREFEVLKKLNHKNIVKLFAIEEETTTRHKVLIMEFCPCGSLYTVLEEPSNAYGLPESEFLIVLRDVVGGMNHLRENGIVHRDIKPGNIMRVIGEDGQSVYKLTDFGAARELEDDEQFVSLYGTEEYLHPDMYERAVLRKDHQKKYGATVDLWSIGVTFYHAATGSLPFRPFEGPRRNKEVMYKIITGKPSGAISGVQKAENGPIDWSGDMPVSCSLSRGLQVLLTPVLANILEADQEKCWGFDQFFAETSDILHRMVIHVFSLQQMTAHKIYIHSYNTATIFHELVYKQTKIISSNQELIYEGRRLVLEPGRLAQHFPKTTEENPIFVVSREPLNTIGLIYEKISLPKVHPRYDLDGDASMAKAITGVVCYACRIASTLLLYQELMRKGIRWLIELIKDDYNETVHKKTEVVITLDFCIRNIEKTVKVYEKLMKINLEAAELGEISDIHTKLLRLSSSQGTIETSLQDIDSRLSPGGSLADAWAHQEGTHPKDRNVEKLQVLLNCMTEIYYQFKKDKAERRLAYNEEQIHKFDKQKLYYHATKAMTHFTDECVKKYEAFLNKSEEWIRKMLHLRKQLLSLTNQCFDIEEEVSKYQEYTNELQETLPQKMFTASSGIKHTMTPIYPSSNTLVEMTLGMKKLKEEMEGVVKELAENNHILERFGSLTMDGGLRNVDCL
# Method in brief: (§1)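 Phosphorylation of casein or myelin basic protein was counted by P-81 filter capture after 30-45 min reactions stopped with phosphoric acid, with counts normalized to DMSO after background subtraction. ATP was twice Km: 60 μM for TBK1 and 32 μM for IKKε, plus [γ33]ATP. Sf9-expressed His-tag enzymes were used at normal/sensitized levels of 0.1/0.02 μg/ml (TBK1) and 0.1/0.015 μg/ml (IKKε).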
# IKKε = target: T2, IKKε (Homo sapiens, UniProt Q14164); test: In-vitro IKKε kinase assay ([γ33]ATP filter-plate); format: biochemical
# T2 construct: His-tag; made in house; host or cells: Sf9 insect cells
# T2 sequence (Q14164 1-716): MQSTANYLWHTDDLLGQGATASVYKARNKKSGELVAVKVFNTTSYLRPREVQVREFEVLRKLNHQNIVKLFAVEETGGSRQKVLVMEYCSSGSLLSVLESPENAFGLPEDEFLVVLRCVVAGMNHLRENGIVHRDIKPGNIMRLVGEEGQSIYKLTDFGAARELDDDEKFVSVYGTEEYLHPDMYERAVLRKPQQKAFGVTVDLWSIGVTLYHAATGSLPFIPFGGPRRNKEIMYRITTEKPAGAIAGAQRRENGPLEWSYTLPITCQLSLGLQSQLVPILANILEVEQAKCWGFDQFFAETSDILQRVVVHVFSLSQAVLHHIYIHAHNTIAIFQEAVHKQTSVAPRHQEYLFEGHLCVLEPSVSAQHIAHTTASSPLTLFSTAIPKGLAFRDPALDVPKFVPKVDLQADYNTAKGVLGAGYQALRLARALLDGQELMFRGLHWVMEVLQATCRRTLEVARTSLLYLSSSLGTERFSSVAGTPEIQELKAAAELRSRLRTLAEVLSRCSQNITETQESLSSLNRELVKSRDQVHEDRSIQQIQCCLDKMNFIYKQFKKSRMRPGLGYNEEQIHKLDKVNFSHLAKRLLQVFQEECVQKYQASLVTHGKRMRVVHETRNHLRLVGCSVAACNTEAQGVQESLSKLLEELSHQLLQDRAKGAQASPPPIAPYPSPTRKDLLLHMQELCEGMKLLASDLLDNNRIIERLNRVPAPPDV
# Method in brief: as §1
# [2] = HEK293T cells, 20 hours, text bins, read-out: IC50 for inhibition of the in-situ IKKε-mediated phosphorylation of IRF3
# [3] = text bins, read-out: IC50 for inhibition of the kinase activity of TBK1
# [4] = text bins, read-out: IC50 for inhibition of the kinase activity of IKKε
SMILES,"pIC50 [1, 2]",pIC50 (TBK1; [3]),pIC50 (IKKε; [4]),"pIC50 ([1]; HEK293T cells in culture, Table 3, read-out: pIRF3 ELISA IC50)","pIC50 (TBK1; Table 3, read-out: TBK1 IC50)","pIC50 (IKKε; Table 3, read-out: IKKε IC50)"
COCCNCc1ccc(Nc2nccc(-c3ccc(NC(=O)C4CC4)c(C#N)c3)n2)cc1OC [compound 556],> 7.00,> 8.00,7.30 to 8.30,,,
"N#Cc1cc(-c2ccnc(Nc3ccc(N4CCOCC4)cc3)n2)ccc1NC(=O)CC(F)(F)F [Example 93, N-[2-cyano-4-(2-{[4-(morpholin-4-yl)phenyl]amino}pyrimidin-4-yl)phenyl]-3,3,3-trifluoropropanamide]",6.60 to 7.00,> 8.00,> 8.30,6.86,9.52,9.15
"COc1cc(Nc2nccc(-c3ccc(OC4CCOCC4)c(C#N)c3)n2)ccc1S(=O)(=O)NC1CCN(C)CC1 [Example 253, 4-({4-[3-cyano-4-(tetrahydro-2H-pyran-4-yloxy)phenyl]pyrimidin-2-yl}amino)-2-methoxy-N-(1-methylpiperidin-4-yl)benzenesulfonamide]",6.30 to 6.60,> 8.00,> 8.30,,,
"CCN1CCC(CCCOc2cc(Nc3nccc(-c4ccc(OC5CCOCC5)c(C#N)c4)n3)ccc2OC)CC1 [compound 521, 5-[2-({3-[3-(1-ethylpiperidin-4-yl)propoxy]-4-methoxyphenyl}amino)pyrimidin-4-yl]-2-(tetrahydro-2H-pyran-4-yloxy)benzonitrile]",> 7.00,> 8.00,> 8.30,,,
"COc1ccc(Nc2nccc(-c3ccc(OC4CCOCC4)c(C#N)c3)n2)cc1OCCCN1CCN(C(C)C)CC1 [compound 523, 5-{2-[(4-methoxy-3-{3-[4-(propan-2-yl)piperazin-1-yl]propoxy}phenyl)amino]pyrimidin-4-yl}-2-(tetrahydro-2H-pyran-4-yloxy)benzonitrile]",> 7.00,> 8.00,> 8.30,,,
"CCN(CC)CCOc1cc(Nc2nccc(-c3ccc(OC4CCN(C(=O)[C@H](C)O)CC4)c(C#N)c3)n2)ccc1F [compound 577, 5-[2-({3-[2-(Diethylamino)ethoxy]-4-fluorophenyl}amino)pyrimidin-4-yl]-2-({1-[(2S)-2-hydroxypropanoyl]piperidin-4-yl}oxy)benzonitrile]",6.30 to 6.60,,> 8.30,,,
"N#Cc1cc(-c2ccnc(Nc3cccc(CN4CCCC4)c3)n2)ccc1OC1CCOCC1 [compound 542, 5-(2-{[3-(Pyrrolidin-1-ylmethyl)phenyl]amino}pyrimidin-4-yl)-2-(tetrahydro-2H-pyran-4-yloxy)benzonitrile]",> 7.00,,> 8.30,,,
"N#Cc1cc(-c2ccnc(Nc3cccc(-n4cccn4)c3)n2)ccc1OC1CCOCC1 [compound 578, 5-(2-{[3-(1H-Pyrazol-1-yl)phenyl]amino}pyrimidin-4-yl)-2-(tetrahydro-2H-pyran-4-yloxy)benzonitrile]",6.30 to 6.60,,> 8.30,,,
"N#Cc1cc(-c2ccnc(Nc3ccc(Cn4cnnn4)cc3)n2)ccc1OC1CCOCC1 [compound 629, 2-(Tetrahydro-2H-pyran-4-yloxy)-5-(2-{[4-(1H-tetrazol-1-ylmethyl)phenyl]amino}pyrimidin-4-yl)benzonitrile]",> 7.00,,> 8.30,,,
"COCCC(=O)Nc1cccc(Nc2nccc(-c3ccc(OC4CCOCC4)c(C#N)c3)n2)c1 [compound 538, N-[3-({4-[3-Cyano-4-(tetrahydro-2H-pyran-4-yloxy)phenyl]pyrimidin-2-yl}amino)phenyl]-3-methoxypropanamide]",> 7.00,,> 8.30,,,
"COC1CN(C(=O)Nc2cccc(Nc3nccc(-c4ccc(OC5CCOCC5)c(C#N)c4)n3)c2)C1 [compound 668, N-[3-({4-[3-Cyano-4-(tetrahydro-2H-pyran-4-yloxy)phenyl]pyrimidin-2-yl}amino)phenyl]-3-methoxyazetidine-1-carboxamide]",6.30 to 6.60,,> 8.30,,,
"N#Cc1cc(-c2ccnc(Nc3ccc(S(N)(=O)=O)cc3)n2)ccc1OC1CCOCC1 [compound 564, 4-({4-[3-Cyano-4-(tetrahydro-2H-pyran-4-yloxy)phenyl]pyrimidin-2-yl}amino) benzenesulfonamide]",6.60 to 7.00,,> 8.30,,,
"Cc1ccc(Nc2nccc(-c3ccc(OC4CCOCC4)c(C#N)c3)n2)cc1NCCN(C)C [compound 628, 5-[2-[[3-(2-dimethylamino-ethylamino)-4-methyl-phenyl]amino}pyrimidin-4-yl]-2-tetrahydropyran-4-yloxy-benzonitrile]",> 7.00,,> 8.30,,,
"CN(C)CCNc1cccc(Nc2nccc(-c3ccc(OC4CCOCC4)c(C#N)c3)n2)c1 [compound 540, 5-{2-[(3-{[2-(Dimethylamino)ethyl]amino}phenyl)amino]pyrimidin-4-yl}-2-(tetrahydro-2H-pyran-4-yloxy)benzonitrile]",> 7.00,,> 8.30,,,
"N#Cc1cc(-c2ccnc(Nc3ccc(/C=C/CN4CCOCC4)cc3)n2)ccc1OC1CCOCC1 [compound 614, 5-[2-({4-[(1E)-3-(Morpholin-4-yl)prop-1-en-1-yl]phenyl}amino)pyrimidin-4-yl]-2-(tetrahydro-2H-pyran-4-yloxy)benzonitrile]",6.30 to 6.60,,> 8.30,,,
"N#Cc1cc(-c2ccnc(Nc3ccc(F)c(OC4CCNC4)c3)n2)ccc1OC1CCOCC1 (stereo not shown) [compound 541, 5-(2-{[4-Fluoro-3-(pyrrolidin-3-yloxy)phenyl]amino}pyrimidin-4-yl)-2-(tetrahydro-2H-pyran-4-yloxy)benzonitrile]",6.60 to 7.00,,> 8.30,,,
"N#Cc1cc(-c2ccnc(Nc3ccc(-n4cnnc4)cc3)n2)ccc1OC1CCOCC1 [compound 607, 2-(Tetrahydro-2H-pyran-4-yloxy)-5-(2-{[4-(4H-1,2,4-triazol-4-yl)phenyl]amino}pyrimidin-4-yl)benzonitrile]",6.60 to 7.00,,> 8.30,,,
"CN(C)C1CCN(c2cccc(Nc3nccc(-c4ccc(OC5CCOCC5)c(C#N)c4)n3)c2)C1 (stereo not shown) [compound 591, 5-[2-({3-[3-(Dimethylamino)pyrrolidin-1-yl]phenyl}amino)pyrimidin-4-yl]-2-(tetrahydro-2H-pyran-4-yloxy)benzonitrile]",6.60 to 7.00,,> 8.30,,,
"N#Cc1cc(-c2ccnc(Nc3cccc(CN4CCOCC4)c3)n2)ccc1OC1CCOCC1 [compound 638, 5-(2-{[3-(Morpholin-4-ylmethyl)phenyl]amino}pyrimidin-4-yl)-2-(tetrahydro-2H-pyran-4-yloxy)benzonitrile]",> 7.00,,> 8.30,,,
